In patent publication US7960549B2, “Solid forms of a chemokine receptor antagonist and methods of use thereof” (priority 2004, dated 2011):
Counter-ions that a name gives are not always drawn.

Legend:
Type in all cases: physicochemical
[1] = Controlled temperature (isothermal) X-ray powder diffraction: thermal stability of the crystalline form; conditions: isothermal scans at intervals of 10° C.
Procedure: X-ray powder diffraction (XRPD) is performed on various samples of the Citrate Salt using one of three instruments. XRPD measurements with Instrument 1 utilize a Siemens-Bruker D5000 Matic powder diffractometer with a Bragg-Brentano (vertical θ-2θ configuration) parafocusing geometry. X-rays are produced from a sealed cobalt anode running at 40 kV and 30 mA. Two lines are typically emitted: CoKα1 (λ=1.7890 Å) and CoKα2 (λ=1.7929 Å). An iron β-filter limits the CoKβ (λ=1.6208 Å) radiation to about 1% of the diffracted beam at the detector. The primary beam passes through a parallel plate collimator (0.2 mm Soller slits), then through a divergence slit (0.2 mm). Diffracted X-rays are detected with a Braun 50 M multichannel linear detector having a 10°-wide detection window in angle 2θ. Scans are performed from 1.5° to 50.0° in 2θ, the scan time being 10 to 40 seconds per degree in 2θ. The error in the 2θ locations are typically within ±0.10 degrees.
In Instrument 3, XRPD measurements are performed at different temperatures to elucidate the evolution of crystal structure with temperature. Tests are carried out with a Siemens-Bruker D5000 diffractometer equipped with the Bragg Brentano parafocusing (θ-θ) geometry and an Anton-Paar TTK temperature chamber. Measurements utilize dry nitrogen or nitrogen streams having a particular humidity. The instrument specifications are substantially similar to the Siemens-Bruker D5000 Matic instrument described above (Instrument 1). Temperature is allowed to rise at a rate of 0.05° C./sec. Scans are recorded under the following conditions: a 1.5 to 50.0 degree scan in angle 2θ, 10 to 20 seconds counting time per degree in 2θ. Data are acquired in isotherm mode when the requested temperature is reached.

[2] = Thermal gravimetric analysis (TGA)
Procedure: Measurements utilizing thermal gravimetric analysis (TGA) are carried out on a T.A. instruments TGAQ500 analyzer. Mass calibration is performed with 10 and 100 mg certified masses. Temperature calibration is performed with Alumel® and nickel standards (Curie points of respectively 154° C. and 354° C.). Samples are exposed to a constant nitrogen stream of 60 ml/min, and temperature ranges from room temperature to 350° C. at a 5° C./min rate. The quantity of product tested is between 2 and 13 mg. The sample is deposited in an open aluminum sample pan, which is itself placed in a platinum pan. The temperatures identified from TGA scans of a particular sample are accurate to within ±3° C. Simultaneous TGA and DSC measurements are carried out using a […] thermal analysis system produced by the […] corporation. A liquid nitrogen cooling system makes it possible to work at temperatures below 20° C. The emitted gases, upon sample heating, are carried by a transfer capillary tube to a Pfeiffer mass spectrometer, the capillary tube heated to 150° C. The mass spectrometer can analyze molecular fragments at <<m/e>> ratios between 1 and 200 uma. A sample with a mass between 1 and 27 mg is contained in an open concave aluminum sample pan (75 μL capacity) exposed to a nitrogen stream. The sample is heated at a rate of 1 or 5° C./min.

[3] = Differential scanning calorimetry (DSC)
Procedure: Differential scanning calorimetry (DSC) analyses are performed using a T.A Instruments Q1000 thermal analyser. Analyses are carried out using nitrogen purge gas flowing at an average rate of 50 ml/min. A mechanical compressor cools the system, and equilibrates the instruments being used at ambient temperature between analyses. […] Energy calibration is performed with a certified indium calibrator (melting enthalpy of 28.45 J/g), applying a heating rate of 5° C./min. The temperatures identified from DSC scans of a particular sample are accurate to within ±3° C. […] Modulated temperature differential scanning calorimetry (MTDSC) is also used since deconvolution of the total heat flow into reversing and non-reversing heat flows allows the transitions to be easily identified. The samples were submitted to the same experimental temperature program: after the equilibration of the sample at −5° C., the samples were heated through a modulated program from −5° C. to 210° C. at a rate of 1° C./min. […] Experiments are performed using crimped aluminium sample pans or open pans in some cases. The quantity of product analysed is typically between 2 and 13 mg.

[4] = Prolonged exposure to fixed relative humidity or rinsing with water, XRPD before and after; conditions: week long exposure; ambient temperature
[5] = Water sorption/desorption cycling (dynamic vapor sorption, DVS) at 25° C., with XRPD before and after; conditions: 25° C.
Procedure: Water sorption measurements are performed on a DVS-1 automated gravimetric vapor sorption analyser (Surface Measurement Systems Ltd., London, UK). The DVS-1 measures the uptake and loss of vapor gravimetrically using a Cahn D200 recording ultra-microbalance with a mass resolution of ±0.1 μg. The relative humidity around the sample is controlled by mixing saturated and dry carrier gas streams using mass flow controllers. The temperature is maintained within ±0.1° C. by enclosing the entire system in a temperature-controlled incubator. A sample size between 15 and 20 mg is used. In general, the error in % (w/w) identified in a tested sample is ±0.1% (w/w).
Two protocols are utilized to operate the DVS. In one protocol, a sample is dried at 0% relative humidity (RH) to remove any surface water present and establish a dry, baseline mass. Next, the sample is exposed to the following relative humidity profile: 0%, 10%, 20%, 30%, 40%, 50%, 60%, 70%, 80%, 90%, 80%, 70%, 60%, 50%, 40%, 30%, 20%, 10%, 0%. In some instances, this profile is repeated, yielding 4 sets of data going up and down in RH. In another protocol, the sample is first equilibrated at 40% RH, then it was exposed to the following relative humidity profile: 40%, 50%, 60%, 70%, 80%, 90%, 100%, 90%, 80%, 70%, 60%, 50% 40% 30%, 20% 10%, 0%, 10%, 20%, 30%, 40%. […] If equilibrium state is not reached, the change in relative humidity took place automatically after 360 or 600 minutes. From the complete moisture sorption and desorption profile, an isotherm is calculated using the DVS Advanced Analysis Suite v3.6. All experiments were performed at 25° C.

[6] = heating rate 5° C./min, sample of the single form (Form H formed from Form E sample), ±3° C.
[7] = heating rate 5° C./min, A, B, H: melting/decomposition, E: loss of water and conversion to Form H, ±3° C.
[8] = mixture of Forms A and D, 0.3° C./min, Form D: conversion to Form A, Form A: melting/decomposition
[9] = sample including Forms A and C, 5° C./min, Form C: conversion to Form A, Form A: melting/decomposition

CC(C)(O)c1ccc2c(c1)/C(=C/CCN1CC[C@](O)(c3ccc(Cl)cc3)C(C)(C)C1)c1cccnc1CO2 [Form A, citrate salt of (S)-4-(4-Chloro-phenyl)-1-{3-[7-(1-hydroxy-1-methyl-ethyl)-11H-10-oxa-1-aza-dibenzo[a,d]cyclohepten-5-ylidene]-propyl}-3,3-dimethyl-piperidin-4-ol]
decomposition/melting observed with controlled temperature X-ray powder diffraction [1]: above 170 °C | TGA weight loss from ambient temperature to about 100° C. ([2]; heating rate 5° C./min): about 0.23 % (w/w) | TGA weight loss of the transition ([2]; heating rate 5° C./min, sample of the single form (Form H formed from Form E sample)): about 27.5 % (w/w) | TGA weight loss transition, interpolated beginning temperature [2, 6]: about 164 °C | TGA weight loss transition, temperature of maximum rate of weight loss [2, 6]: 183 °C | TGA weight loss ([2]; sample including Forms A and C): 21.9 % (w/w) | TGA weight loss, temperature of maximum rate of weight loss ([2]; sample including Forms A and C): 183 °C | TGA weight loss, interpolated beginning temperature ([2]; sample including Forms A and C, Form C: conversion away from Form C, Form A: decomposition/melting): 168 °C | DSC endothermic transition, Tmax ([3]; heating rate 1° C./min): 167 °C | DSC endothermic transition, interpolated beginning temperature ([3]; heating rate 1° C./min): 164 °C | DSC endothermic transition, Tmax [3, 7]: 176 °C | DSC endothermic transition, interpolated beginning temperature [3, 7]: 169 °C | DSC endothermic transition, Tmax [3, 8]: 166 °C | DSC endothermic transition, interpolated beginning temperature [3, 8]: about 160 °C | DSC endothermic transition, Tmax [3, 9]: 178 °C | DSC endothermic transition, interpolated beginning temperature [3, 9]: about 173 °C | crystal form by XRPD after exposure to a relative humidity of 97.5% [4]: does not change form | change in moles of water per mole of anhydrous crystal over relative humidity 0% to 90% [5]: about 0.8 moles of water per mole of anhydrous crystal | change in mass as the relative humidity is changed between 0% and 90% ([5]; dry crystal basis, known to within ±0.1%): about 1.9% | XRPD before and after water sorption/desorption cycling ([5]; two consecutive cycles, 0% to 90% relative humidity): no structural change
